Measurements taken from patent US20110251240A1, “Dosing Regimen of Flavopiridol for Treating Cancer” (OHIO STATE UNIVERSITY RESEARCH FOUNDATION, priority 2005, published 2011).
“Also recorded” adds a separate entry of the source. Counter-ions that a name gives are not always drawn. Like-named read-outs stand apart in the source and are kept apart here.

What was measured:
patients with CLL [1] = assay: Example 2 clinical trial: response; format: in vivo, human
Text: (§1) Fifty-six patients were enrolled in this clinical trial with the median prior therapies being 4 and the majority being fludarabine-refractory. […] Cohort 1 was expanded with aggressive TLS prophylaxis. Of the 20 patients in cohort 1, 8 (40%) attained a partial response (PR) with median response duration exceeding 12 months. […] Cohort 3 and 4 did this (Table 4) with acceptable toxicity. Cohort 3 included 19 patients of whom 14 were escalated with the 5th dose. […] Ten (53%) of patients attained a partial response. […] TLS risk factors were examined for the first treatment dose in cohorts 1-3. WBC of ≧200×10^9/L were more frequently associated with TLS (5 of 8 pts) versus those with WBC<200×10^9/L (1 of 34 pts). Cohort 4 excludes pts with WBC≧200×10^9/L and currently includes 14 pts. Safety has been acceptable with only 1 case of TLS. Response assessment for cohort 4 is underway, with anti-tumor activity appearing similar to that observed in cohort 3.

relapsed CLL = conditions: cited from earlier work; for clinical activity / response: CLL, hydrochloride
[2] = system: patients with CLL or small lymphocytic lymphoma; assay: Example 1 phase I trial: toxicity; format: in vivo
Protocol: Subjects: All patients provided written informed consent. […] Flavopiridol was administered via a central venous catheter. […] The ability to perform bedside emergent dialysis was assured.
Toxicity Observed with Flavopiridol: Six patients were initially treated in dose level 1 (30 mg/m^2 bolus followed by 30 mg/m^2 4-hour infusion), with one patient having dose limiting toxicity (neutropenic fever). Dose escalation proceeded to dose level 2, with three patients being treated. […] On autopsy, extensive apoptosis/necrosis of diffuse intra-abdominal lymphadenopathy was found. No additional patients were treated at this dose, but patient one of dose level 2, who previously had not experienced TLS at the 80 mg/m^2/dose, developed this toxicity on day 1 of cycle 2 while receiving a 60 mg/m^2 dose. All treatment was put on hold and an aggressive monitoring mechanism was put into place. Fourteen additional patients were treated at the level 1 dose utilizing this protocol. While biochemical evidence of TLS was present in most patients receiving therapy, only one developed significant TLS that required temporary dialysis for medically uncontrollable hyperkalemia on day 1 of therapy. While grade 1 (n=11) or 2 (n=6) diarrhea occurred in the majority of patients treated at the level 1 dose, this was generally short-lived. Similarly, transient grade 1 (n=13) or grade 2 (n=6) fatigue was observed.

[3] = Example 2 clinical trial: plasma Cmax; format: in vivo; conditions: human, intravenous
Text: as §1

[4] = Example 1 plasma pharmacokinetics (LC/MS); conditions: for half-life: plasma, intravenous
Text: (§2) Subjects: All patients provided written informed consent. Patients had CLL or small lymphocytic lymphoma and required therapy according to the NCI criteria. […] Enrollment requirements included: age older than 17 years, symptomatic by the NCI 96 criteria, platelet count greater than 49×10^9/L, ECOG performance status of 2 or less, no active infection or inflammatory bowel disease, and not pregnant. The serum creatinine and total bilirubin levels were required to be no more than 2.0 times the normal value. Design, Treatment and Dose Modifications: This study utilized a modified phase I design, enrolling three to six patients per level until two of the first six patients experienced dose limiting toxicity. Expansion of the dose level below this occurred to a minimum of six patients to assure safety for phase II investigation. Flavopiridol was administered via a central venous catheter. The schedule of flavopiridol included receiving 50% of the dose as a 30-minute bolus infusion and the remaining 50% dose as a 4-hour infusion every week for four consecutive weeks, followed by two weeks off. The total dose administered in level 1 was 60 mg/m^2 (i.e. 30 mg/m^2 as 30 minute bolus followed by 30 mg/m^2 4-hour continuous infusion). In level 2 the dose was 80 mg/m^2 (i.e. 40 mg/m^2 bolus and 40 mg/m^2 infusion). All patients received allopurinol 300 mg/day beginning one day prior to initiation of treatment and continued during therapy. All patients received prophylactic anti-viral and Pneumocystis carinii pneumonia therapy as described previously during and for six months following completion of therapy. […] Aggressive management of hyperkalemia including kayexalate therapy, insulin and glucose therapy, and calcium therapy was employed according to an established protocol. The ability to perform bedside emergent dialysis was assured. Prophylactic rasburicase was utilized in patients with bulky lymphadenopathy or high lymphocyte counts. Following five treatments with flavopiridol, treatment was transitioned to outpatient status with two hours of hydration before and through therapy with abbreviated laboratory monitoring. Patients could discontinue therapy for stable disease without improvement after two cycles (eight treatments). Otherwise, patients continued therapy in the absence of progression or toxicity that prohibited further treatment for a maximum of six cycles (24 treatments) of flavopiridol. Patients were evaluated for response after two, four, and six cycles of therapy. Dose Limiting Toxicity: Dose limiting toxicity was defined as non-hematologic toxicity of grade 3 or greater severity (excluding transient liver function abnormalities, transient non-life-threatening electrolyte abnormalities, fatigue, or diarrhea that resolve within four days), or in some case grade 2 toxicity (i.e. irreversible renal, chronic pulmonary, neurologic, or cardiac toxicity). Hematologic toxicity was dose limiting only if grade 4 thrombocytopenia or neutropenia persisted for seven days or greater. The NCI Common Toxicity Criteria was used to grade non-hematologic toxicity and the NCI 96 CLL criteria for hematologic toxicity. See, Cheson B. D., et al. “National Cancer Institute-sponsored Working Group guidelines for chronic lymphocytic leukemia: revised guidelines for diagnosis and treatment,” Blood 1996; 87:4990-7. Assessment of Response: Criteria for response and progression utilized the Revised NCI-sponsored Working Group Guidelines as mentioned above. As specified by these guidelines, a response had to be maintained for a period of two months.

[5] = format: in vitro ADME; conditions: bovine
Text: However, despite the promising pre-clinical results with flavopiridol in CLL and virtually all hematologic malignancies, the efficacy of flavopiridol in treating CLL in all of the clinical studies reported thus far are disappointing. […] See for example, Byrd J. C. et al., “Treatment of Relapsed Chronic Lymphocytic Leukemia by 72-hour Continuous Infusion or 1-Hour Bolus Infusion of Flavopiridol: Results from Cancer and Leukemia Group B Study 19805,” Clin. Cancer Res. 2005; 11(11) Jun. 1, 2005, 4176-4181, and references cited therein. The schedules selected in these unsuccessful trials were modeled after in vitro studies performed in fetal bovine serum-based media.
Based upon the poor clinical results in all the trials reported to date with flavopiridol, the present invention contemplated the possibility that differential protein binding could exist between these two culture media. […] Additionally, the 1-hour LC50 concentration for CLL cells in human serum was generally not obtained in the solid tumor phase I trial exploring this schedule. Thus, the prolonged continuous infusion or bolus dosing schedules previously explored in CLL and NHL may not achieve pharmacologically effective drug concentrations of flavopiridol, thereby explaining the absence of activity in the continuous infusion schedules and the marginal activity with the IV bolus schedule. […]

RNA polymerase II = assay: Example 1 cellular pharmacodynamics: RNA polymerase II serine-5 phosphorylation in primary CLL cells during treatment; format: in vivo, human; conditions: eight patients examined
Text: (§3) Subjects: All patients provided written informed consent. Patients had CLL or small lymphocytic lymphoma and required therapy according to the NCI criteria. […] Enrollment requirements included: age older than 17 years, symptomatic by the NCI 96 criteria, platelet count greater than 49×10^9/L, ECOG performance status of 2 or less, no active infection or inflammatory bowel disease, and not pregnant. The serum creatinine and total bilirubin levels were required to be no more than 2.0 times the normal value. Design, Treatment and Dose Modifications: This study utilized a modified phase I design, enrolling three to six patients per level until two of the first six patients experienced dose limiting toxicity. Expansion of the dose level below this occurred to a minimum of six patients to assure safety for phase II investigation. Flavopiridol was administered via a central venous catheter. The schedule of flavopiridol included receiving 50% of the dose as a 30-minute bolus infusion and the remaining 50% dose as a 4-hour infusion every week for four consecutive weeks, followed by two weeks off. The total dose administered in level 1 was 60 mg/m^2 (i.e. 30 mg/m^2 as 30 minute bolus followed by 30 mg/m^2 4-hour continuous infusion). In level 2 the dose was 80 mg/m^2 (i.e. 40 mg/m^2 bolus and 40 mg/m^2 infusion). […] Patients were evaluated for response after two, four, and six cycles of therapy. […]

[6] = system: patients with CLL or small lymphocytic lymphoma; assay: Example 1 phase I trial: response (NCI 96 criteria); format: in vivo, human
Text: as §2

Mcl-1 = assay: Example 1 cellular pharmacodynamics: immunoblot of Mcl-1 in primary CLL cells during treatment; format: in vivo, human
Text: as §3

patients with CLL [7] = conditions: human, in vivo
Text: as §1

CLL cells = assay: cells; format: cell-based; conditions: Homo sapiens, CLL cell
Text: Based upon the poor clinical results in all the trials reported to date with flavopiridol, the present invention contemplated the possibility that differential protein binding could exist between these two culture media. […] Additionally, the 1-hour LC50 concentration for CLL cells in human serum was generally not obtained in the solid tumor phase I trial exploring this schedule. Thus, the prolonged continuous infusion or bolus dosing schedules previously explored in CLL and NHL may not achieve pharmacologically effective drug concentrations of flavopiridol, thereby explaining the absence of activity in the continuous infusion schedules and the marginal activity with the IV bolus schedule. Given the novel mechanism of action of flavopiridol, as well as its ability to induce apoptosis independent of p53 dysfunction and modulate critical anti-apoptotic proteins such as Mcl-1 in vitro, and utilizing pharmacokinetic modeling a new dosing regimen in accordance with this invention was developed.

[8] = Cohort 1, 30 mg/m^2 + 30 mg/m^2, 20 pts
[9] = Cohort 2, 40 mg/m^2 + 40 mg/m^2, 3 pts
[10] = 23 CLL patients, 30-min bolus + 4-h infusion
[11] = cohort 1, 30 mg/m^2 + 30 mg/m^2
[12] = cohort 3 at the escalated doses (30 mg/m^2 + 50 mg/m^2)

SMILES: CN1CCC(c2c(O)cc(O)c3c(=O)cc(-c4ccccc4Cl)oc23)[C@H](O)C1.Cl (stereo partly drawn) [Flavopiridol, (cis-5,7-dihydroxy-2-(2-chlorophenyl)-8-[4-(3-hydroxy-1-methyl)-piperidinyl]-1-benzopyran-4-one) hydrochloride]
- Response Rate (partial response), number of patients (patients with CLL [1]; [8]): 8
- Response Rate (partial response), percentage (patients with CLL [1]; [8]): 40%
- Response Rate, number of patients (patients with CLL [1]; [9]): 1
- Response Rate, percentage (patients with CLL [1]; [9]): 33%
- Response Rate (partial response), percentage (patients with CLL [1]; Cohort 3, 30 + 30 mg/m^2 dose 1-4 then 30 + 50 mg/m^2, 19 pts): 53%
- median response duration (patients with CLL [1]; cohort 1 responders): exceeding 12 months
- tumor cytoreduction with dose escalation (patients with CLL [1]; cohort 3, 14 patients escalated with the 5th dose): Increased tumor cytoreduction was observed in a majority of patients
- response rate (relapsed CLL; 1-hour bolus, relapsed CLL): 11%
- clinical activity / response (relapsed CLL; 24-hour infusion): No activity; also recorded: no patients with CLL responded
- clinical activity / response (relapsed CLL; 72-hour continuous infusion): No activity; also recorded: no patients with CLL responded
- toxicity in patient three at dose level 2 ([2]; 40 mg/m^2 bolus + 40 mg/m^2 infusion, day 1): TLS complicated by uncontrollable hyperkalemia and subsequent fatal asystole
- Number of patients with AST Elevation Grade 5 [2, 10]: 0
- Number of patients with Anemia Grade 5 [2, 10]: 0
- Number of patients with Arthralgias Grade 5 [2, 10]: 0
- Number of patients with Diarrhea Grade 5 [2, 10]: 0
- Number of patients with Dyspnea Grade 5 [2, 10]: 0
- Number of patients with Edema Grade 5 [2, 10]: 0
- Number of patients with Fatigue Grade 5 [2, 10]: 0
- Number of patients with Hypokalemia Grade 5 [2, 10]: 0
- Number of patients with Infection Grade 3 [2, 10]: 5
- Number of patients with Infection Grade 4 [2, 10]: 0
- Number of patients with Infection Grade 5 [2, 10]: 0
- Number of patients with Neutropenia Grade 5 [2, 10]: 0
- Number of patients with Syncope Grade 5 [2, 10]: 0
- Number of patients with Thrombocytopenia Grade 5 [2, 10]: 0
- Number of patients with Tumor Lysis Syndrome Grade 5 [2, 10]: 1
- Percentage of patients with Infection Grade 3 [2, 10]: (22%)
- Percentage of patients with Tumor Lysis Syndrome Grade 5 [2, 10]: 4%
- patients with grade 1 diarrhea ([2]; human, in vivo): 11
- patients with grade 2 diarrhea ([2]; human, in vivo): 6
- patients with transient grade 1 fatigue ([2]; human, in vivo): 13
- patients with transient grade 2 fatigue ([2]; human, in vivo): 6
- patients developing significant TLS that required temporary dialysis ([2]; in vivo): one
- Cmax at 0.5 hr [3, 11]: 2080 nM
- Cmax at 4.5 hr [3, 11]: 960 nM
- Cmax at 0.5 hr [3, 12]: 1950 nM
- Cmax at 4.5 hr [3, 12]: 1540 nM
- CL ([4]; 30 + 30 mg/m^2 (n = 20), Mean ± S.D.): 14.5 ± 6.5 L/hr/m^2
- inter-patient variability of Cmax ([4]; human, in vivo): two to three-fold
- Cmax ([4]; human, in vivo, 80 mg/m^2): 4400 nM
- half-life ([4]; human, t1/2, 30 + 30 mg/m^2 (n = 20), Mean ± S.D.): 14 ± 10.2 h
- half-life ([4]; human, terminal half-life, mean±S.D., after the end of the 4-hour CIVI): 14 ± 10.2 h
- half-life ([4]; human, terminal half-life, range, after the end of the 4-hour CIVI): 1.1 to 42.5 h
- free drug level [5]: 63-100%
- change in serine-5 phosphorylation of RNA polymerase II (RNA polymerase II): no change
- duration of partial response in patient two at dose level 2 ([6]; 40 mg/m^2 bolus + 40 mg/m^2 infusion): > 13 month
- patients attaining a partial response (NCI 96 criteria), number ([6]; among the 23 patients enrolled): ten
- patients attaining a partial response (NCI 96 criteria), percentage ([6]; among the 23 patients enrolled): 43%
- responding patients relapsed ([6]; of ten responders, at eight and sixteen months): two
- responding patients remaining in continuous remission ([6]; of ten responders, at five to 14+ months): Eight
- patients experiencing a 50% or greater reduction in lymphadenopathy ([6]; of the nine patients with measurable lymphadenopathy, by day 8 of cycle 1): eight
- patients with significant modulation of Mcl-1 (Mcl-1; of the five non-responding patients examined): None
- patients with decreased expression of Mcl-1 with treatment (Mcl-1; of three responding patients examined): two
- cases of TLS (patients with CLL [7]): 1

SMILES: CN1CC[C@H](c2c(O)cc(O)c3c(=O)cc(-c4ccccc4Cl)oc23)[C@H](O)C1 [Flavopiridol, (cis-5,7-dihydroxy-2-(2-chlorophenyl)-8-[4-(3-hydroxy-1-methyl)-piperidinyl]-1-benzopyran-4-one) hydrochloride]
- CC50 (CLL cells; 1 h, read-out: 1-hour LC50 required to induce apoptosis in CLL cells, 1-hour exposure, fetal calf serum): 0.67 µM
- CC50 (CLL cells; 1 h, read-out: 1-hour LC50 required to induce apoptosis in CLL cells, 1-hour exposure, human serum): 3.51 µM
- CC50 (CLL cells; 24 h, read-out: 24-hour LC50 required to induce apoptosis in CLL cells, 24-hour exposure, fetal calf serum): 0.12 µM
- CC50 (CLL cells; 24 h, read-out: 24-hour LC50 required to induce apoptosis in CLL cells, 24-hour exposure, human serum): 0.47 µM
